Values after ≈ are worked out from the molar mass of the structure shown. Like-named read-outs stand apart in the source and are kept apart here.
Legend:
Assay in all cases: Bacterial susceptibility testing (MIC, broth microdilution)
Type in all cases: cell-based
E. coli ATCC25922 = details: for MIC: Escherichia coli
Description: (§1) Minimal inhibitory concentrations (MIC) were determined by the broth microdilution method in accordance with the Clinical and Laboratory Standards Institute (CLSI) guidelines. In brief, organism suspensions were adjusted to a final inoculum between 3×10^5 and 7×10^5 colony-forming units (CFU)/mL. Drug dilutions and inocula were made in sterile, cation adjusted Mueller-Hinton Broth (Beckton Dickinson). In wells, an inoculum volume of 100 μL was mixed to 2 μL of DMSO with 2-fold serial dilutions of drug. All inoculated microdilution trays were incubated in ambient air at 35° C. for 18-24 h. Following incubation, the lowest concentration of the drug that prevented visible growth (OD600 nm<0.05) was recorded as the MIC. Performance of the assay was monitored by the use of laboratory quality -control strains and compounds with defined MIC spectrum, in accordance with CLSI guidelines.

K. pneumoniae ATCC13883 = details: for MIC: Klebsiella pneumoniae
Description: as §1

P. aeruginosa ATCC27853 = details: for MIC: Pseudomonas aeruginosa
Description: as §1

P. aeruginosa PAO1 = details: Pseudomonas aeruginosa
Description: as §1

[1] = ATCC25922, broth microdilution, cation adjusted Mueller-Hinton Broth, 35° C., 18-24 h, read-out: E. coli ATCC25922 MIC
[2] = ATCC13883, broth microdilution, cation adjusted Mueller-Hinton Broth, 35° C., 18-24 h, read-out: K. pneumoniae ATCC13883 MIC
[3] = ATCC27853, broth microdilution, cation adjusted Mueller-Hinton Broth, 35° C., 18-24 h, read-out: P. aeruginosa ATCC27853 MIC
[4] = PAO1, broth microdilution, cation adjusted Mueller-Hinton Broth, 35° C., 18-24 h, read-out: P. aeruginosa PAO1 MIC
[5] = ATCC25922, read-out: E. coli ATCC25922 MIC
[6] = ATCC13883, read-out: K. pneumoniae ATCC13883 MIC
[7] = ATCC27853, read-out: P. aeruginosa ATCC27853 MIC
[8] = PAO1, read-out: P. aeruginosa PAO1 MIC
[9] = broth microdilution, cation adjusted Mueller-Hinton Broth, 35° C., 18-24 h

SMILES | MIC (E. coli ATCC25922; [1]) [µg/mL] | MIC (K. pneumoniae ATCC13883; [2]) [µg/mL] | MIC (P. aeruginosa ATCC27853; [3]) [µg/mL] | MIC (P. aeruginosa PAO1; [4]) [µg/mL] | E. coli ATCC25922 MIC (E. coli ATCC25922; [9]) [µg/mL] | K. pneumoniae ATCC13883 MIC (K. pneumoniae ATCC13883; [9]) [µg/mL] | P. aeruginosa ATCC27853 MIC (P. aeruginosa ATCC27853; [9]) [µg/mL] | MIC (E. coli ATCC25922; [5]) [µg/mL] | MIC (K. pneumoniae ATCC13883; [6]) [µg/mL] | MIC (P. aeruginosa ATCC27853; [7]) [µg/mL] | MIC (P. aeruginosa PAO1; [8]) [µg/mL]
C[C@H](O)c1nccn1[C@@H](C#Cc1ccc(-c2ccc(N[C@H]3COC[C@@H]3O)c(F)c2)cc1)CO (single isomer, unassigned) [Compound 60] | 2 (≈ 4.43 µM) | 4 (≈ 8.86 µM) | 4 (≈ 8.86 µM) | 4 (≈ 8.86 µM) | – | – | – | – | – | – | –
C[C@H](O)c1nccn1[C@@H](C#Cc1ccc(-c2ccc(O[C@@H]3COC[C@H]3O)cc2)c(F)c1)CO (racemic) [Compound 5, (rac-trans)-4-((2′-fluoro-4′-((S)-4-hydroxy-3-(2-((S)-1-hydroxyethyl)-1H-imidazol-1-yl)but-1-yn-1-yl)-[1,1′-biphenyl]-4-yl)oxy)tetrahydrofuran-3-ol] | 2 (≈ 4.42 µM) | 4 (≈ 8.84 µM) | 4 (≈ 8.84 µM) | 4 (≈ 8.84 µM) | – | – | – | – | – | – | –
C[C@H](O)c1nccn1[C@@H](C#Cc1ccc(-c2ccc(OC3COC[C@H]3O)c(F)c2)cc1)CO (mixture of isomers) [Compound 6, (rac-trans)-4-((3-fluoro-4′-((S)-4-hydroxy-3-(2-((S)-1-hydroxyethyl)-1H-imidazol-1-yl)but-1-yn-1-yl)-[1,1′-biphenyl]-4-yl)oxy)tetrahydrofuran-3-ol] | 2 (≈ 4.42 µM) | 4 (≈ 8.84 µM) | 4 (≈ 8.84 µM) | 2 (≈ 4.42 µM) | – | – | – | – | – | – | –
C[C@H](O)c1nccn1[C@@H](C#Cc1ccc(-c2ccc(OC3COC[C@@H]3O)c(F)c2)cc1)CO (single isomer, unassigned) [Compound 7] | 1 (≈ 2.21 µM) | 4 (≈ 8.84 µM) | 4 (≈ 8.84 µM) | 2 (≈ 4.42 µM) | – | – | – | – | – | – | –
C[C@H](O)c1nccn1[C@@H](C#Cc1ccc(-c2ccc(NC3CC3)cc2)cc1)CO [Compound 81, (S)-4-(4′-(cyclopropylamino)-[1,1′-biphenyl]-4-yl)-2-(2-((S)-1-hydroxyethyl)-1H-imidazol-1-yl)but-3-yn-1-ol] | – | – | – | – | – | – | – | 0.25 (≈ 0.645 µM) | 0.5 (≈ 1.29 µM) | 8 (≈ 20.6 µM) | 2 (≈ 5.16 µM)
C[C@H](O)c1nccn1[C@@H](C#Cc1ccc(-c2ccc(OC3CN(C(=O)N(C)C)C3)cc2)cc1)CO [Compound 95, 3-((4′-((S)-4-hydroxy-3-(2-((S)-1-hydroxyethyl)-1H-imidazol-1-yl)but-1-yn-1-yl)-[1,1′-biphenyl]-4-yl)oxy)-N,N-dimethylazetidine-1-carboxamide] | – | – | – | – | – | – | – | 0.5 (≈ 1.05 µM) | 2 (≈ 4.21 µM) | 4 (≈ 8.43 µM) | 2 (≈ 4.21 µM)
CC(=O)N1CC(Oc2ccc(-c3ccc(C#C[C@@H](CO)n4ccnc4[C@H](C)O)cc3)cc2)C1 [Compound 88, 1-(3-((4′-((S)-4-hydroxy-3-(2-((S)-1-hydroxyethyl)-1H-imidazol-1-yl)but-1-yn-1-yl)-[1,1′-biphenyl]-4-yl)oxy)azetidin-1-yl)ethan-1-one] | – | – | – | – | – | – | – | 1 (≈ 2.24 µM) | 2 (≈ 4.49 µM) | 4 (≈ 8.98 µM) | 2 (≈ 4.49 µM)
C[C@H](O)c1nccn1[C@@H](C#Cc1ccc(-c2ccc(OC3CN(S(C)(=O)=O)C3)cc2)cc1)CO [Compound 89, (S)-2-(2-((S)-1-hydroxyethyl)-1H-imidazol-1-yl)-4-(4′-((1-(methylsulfonyl)azetidin-3-yl)oxy)-[1,1′-biphenyl]-4-yl)but-3-yn-1-ol] | – | – | – | – | – | – | – | 1 (≈ 2.08 µM) | 2 (≈ 4.15 µM) | 8 (≈ 16.6 µM) | 4 (≈ 8.31 µM)
C[C@H](O)c1nccn1[C@@H](C#Cc1ccc(-c2ccc(OC3CN(CC#N)C3)cc2)cc1)CO [Compound 92, 2-(3-((4′-((S)-4-hydroxy-3-(2-((S)-1-hydroxyethyl)-1H-imidazol-1-yl)but-1-yn-1-yl)-[1,1′-biphenyl]-4-yl)oxy)azetidin-1-yl)acetonitrile] | – | – | – | – | – | – | – | 0.75 (≈ 1.69 µM) | 1.5 (≈ 3.39 µM) | 6 (≈ 13.6 µM) | 3 (≈ 6.78 µM)
C[C@H](O)c1nccn1[C@@H](C#Cc1ccc(-c2ccc(CO[C@H]3COC[C@@H]3O)c(F)c2)cc1)CO (single isomer, unassigned) [Compound 46] | – | – | – | – | 1 | 2 | 4 | – | – | – | –

Continued, in another order:

MIC (E. coli ATCC25922; [1]) [µg/mL] | MIC (K. pneumoniae ATCC13883; [2]) [µg/mL] | MIC (P. aeruginosa ATCC27853; [3]) [µg/mL] | MIC (P. aeruginosa PAO1; [4]) [µg/mL] | E. coli ATCC25922 MIC (E. coli ATCC25922; [9]) [µg/mL] | K. pneumoniae ATCC13883 MIC (K. pneumoniae ATCC13883; [9]) [µg/mL] | P. aeruginosa ATCC27853 MIC (P. aeruginosa ATCC27853; [9]) [µg/mL] | SMILES | MIC (E. coli ATCC25922; [5]) [µg/mL] | MIC (K. pneumoniae ATCC13883; [6]) [µg/mL] | MIC (P. aeruginosa ATCC27853; [7]) [µg/mL] | MIC (P. aeruginosa PAO1; [8]) [µg/mL]
0.5 (≈ 1.11 µM) | 1 (≈ 2.23 µM) | 4 (≈ 8.92 µM) | 2 (≈ 4.46 µM) | – | – | – | CO[C@@H]1COC[C@H]1Oc1ccc(-c2ccc(C#C[C@@H](CO)n3ccnc3[C@H](C)O)cc2)cc1 (single isomer, unassigned) [Compound 126] | – | – | – | –
0.25 (≈ 0.585 µM) | 1 (≈ 2.34 µM) | > 32 | 2 (≈ 4.68 µM) | – | – | – | C[C@H](O)c1nccn1[C@@H](C#Cc1ccc(-c2ccc(O[C@H]3C[C@H](C#N)C3)cc2)cc1)CO (racemic) [Compound 130, (rac-trans)-3-((4′-((S)-4-hydroxy-3-(2-((S)-1-hydroxyethyl)-1H-imidazol-1-yl)but-1-yn-1-yl)-[1,1′-biphenyl]-4-yl)oxy) cyclobutane-1-carbonitrile] | – | – | – | –
1 (≈ 2.02 µM) | 2 (≈ 4.04 µM) | 4 (≈ 8.07 µM) | 2 (≈ 4.04 µM) | – | – | – | C[C@H](O)c1nccn1[C@@H](C#Cc1ccc(-c2ccc(O[C@H]3C[C@H](NS(C)(=O)=O)C3)cc2)cc1)CO (racemic) [Compound 120, N-((rac-trans)-3-((4′-((S)-4-hydroxy-3-(2-((S)-1-hydroxyethyl)-1H-imidazol-1-yl)but-1-yn-1-yl)-[1,1′-biphenyl]-4-yl)oxy)cyclobutyl)methane-sulfonamide] | – | – | – | –
0.38 (≈ 0.91 µM) | 1.2 (≈ 2.87 µM) | > 32 | > 32 | – | – | – | COC1CN(c2ccc(-c3ccc(C#C[C@@H](CO)n4ccnc4[C@H](C)O)cc3)cc2)C1 [Compound 110, (S)-2-(2-((S)-1-hydroxyethyl)-1H-imidazol-1-yl)-4-(4′-(3-methoxyazetidin-1-yl)-[1,1′-biphenyl]-4-yl)but-3-yn-1-ol] | – | – | – | –
0.25 (≈ 0.564 µM) | 1 (≈ 2.25 µM) | 1 (≈ 2.25 µM) | 1 (≈ 2.25 µM) | – | – | – | CC(=O)N[C@H]1C[C@H](c2ccc(-c3ccc(C#C[C@@H](CO)n4ccnc4[C@H](C)O)cc3)cc2)C1 (racemic) [Compound 127, N-((rac-trans)-3-(4′-((S)-4-hydroxy-3-(2-((S)-1-hydroxyethyl)-1H-imidazol-1-yl)but-1-yn-1-yl)-[1,1′-biphenyl]-4-yl)cyclobutyl)acetamide] | – | – | – | –
0.38 (≈ 0.981 µM) | > 32 | > 32 | > 32 | – | – | – | C[C@H](O)c1nccn1[C@@H](C#Cc1ccc(-c2ccc(N3CCC3)cc2)cc1)CO [Compound 108, (S)-4-(4′-(azetidin-1-yl)-[1,1′-biphenyl]-4-yl)-2-(2-((S)-1-hydroxyethyl)-1H-imidazol-1-yl)but-3-yn-1-ol] | – | – | – | –
1 (≈ 2.19 µM) | 2 (≈ 4.38 µM) | 8 (≈ 17.5 µM) | 4 (≈ 8.76 µM) | – | – | – | CC1C(Oc2ccc(-c3ccc(C#C[C@@H](CO)n4ccnc4[C@H](C)O)cc3)cc2)CN1CC#N (mixture of isomers) [Compound 99] | – | – | – | –
1 (≈ 2.21 µM) | 4 (≈ 8.86 µM) | 4 (≈ 8.86 µM) | 2 (≈ 4.43 µM) | – | – | – | C[C@H](O)c1nccn1[C@@H](C#Cc1ccc(-c2ccc(N[C@@H]3COC[C@H]3O)c(F)c2)cc1)CO (single isomer, unassigned) [Compound 59] | – | – | – | –
0.5 (≈ 1.16 µM) | 2 (≈ 4.62 µM) | 4 (≈ 9.25 µM) | 2 (≈ 4.62 µM) | – | – | – | C[C@H](O)c1nccn1[C@@H](C#Cc1ccc(-c2ccc(OCC3(C)COC3)cc2)cc1)CO [Compound 80, (S)-2-(2-((S)-1-hydroxyethyl)-1H-imidazol-1-yl)-4-(4′-((3-methyloxetan-3-yl)methoxy)-[1,1′-biphenyl]-4-yl)but-3-yn-1-ol] | – | – | – | –
1 (≈ 2.66 µM) | 2 (≈ 5.31 µM) | 16 (≈ 42.5 µM) | 4 (≈ 10.6 µM) | – | – | – | C[C@H](O)c1nccn1[C@@H](C#Cc1ccc(-c2ccc([C@@H](C)O)cc2)cc1)CO [Compound 138, (S)-2-(2-((S)-1-hydroxyethyl)-1H-imidazol-1-yl)-4-(4′-((R)-1-hydroxyethyl)-[1,1′-biphenyl]-4-yl)but-3-yn-1-ol] | – | – | – | –
